We go through 20 molecules from patent publication US11827628B2, “Compositions and methods for inhibition of the JAK pathway” (Rigel Pharmaceuticals, Inc., priority 2005, dated 2023).

Structures can show the parent of a compound that is named as a salt. Where two headings read alike, the source gives them in different places.

Experiment [1] deals with up-regulation of ICAM-1 (CD54) by IFNγ in U937 human monocytic cells. In words: U937 IFNγ ICAM1 FACS Assay. The experiment is classed as cell-based. Particulars: U937 cells stimulated with IFNγ, ICAM-1 expression by FACS, read-out: IC50, Example 44. In short, it runs like this:
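U937 cells in 10% FCS RPMI were preincubated 30 min at 37 °C with an 8-point, 3-fold compound dilution series in duplicate, then stimulated with IFNγ for 18–24 h. Surface ICAM-1 was stained with APC anti-ICAM-1 and read by flow cytometry as geometric mean on live-gated cells. EC50 was derived.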

Experiment [2] concerns IL-4 stimulated expression of CD23 in human Ramos B cells (JAK-1 and JAK-3). In words: Assay for Ramos B-Cell Line Stimulated with IL-4 (CD23 upregulation, FACS). Particulars: Ramos B-cell line stimulated with IL-4, CD23 expression by FACS, read-out: IC50, Example 41. The experiment is classed as cell-based. The gist of the method: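 Human Ramos B cells (5×10^4 per point, RPMI 5% serum) pre-incubated 1 h at 37 °C with compound or DMSO, then stimulated with IL-4 at 50 units/mL final for 20-24 h. CD23 upregulation measured by anti-CD23-PE staining and flow cytometry; IC50 derived.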
(Flow cytometry measures light scatter and fluorescence of single cells or particles in a stream.)

The term IC50 denotes the concentration at which inhibition is half-maximal. Take `Cc1ccc(Nc2ncc(F)c(Nc3ccc(OCc4ccccn4)cc3)n2)cc1S(N)(=O)=O` [Compound I-160, N2-(3-Aminosulfonyl-4-methylphenyl)-5-fluoro-N4-[4-(2-pyridinyl)methyleneoxyphenyl]-2,4-pyrimidinediamine]: the IC50 in experiment [1] was found to be 923 nM; in experiment [2] it was 130 nM.
`NS(=O)(=O)c1ccc(Nc2ncc(F)c(Nc3ccc(OCc4ccccn4)cc3)n2)cc1` [Compound I-163, N2-(4-Aminosulfonylphenyl)-5-fluoro-N4-[4-(2-pyridinyl)methyleneoxyphenyl]-2,4-pyrimidinediamine]: the IC50 in experiment [1] came out at 1410 nM; in experiment [2] it was 177 nM.
Regarding `CCN(CC)CCNS(=O)(=O)c1ccc(Nc2ncc(F)c(Nc3ccc(OCc4ccccn4)cc3)n2)cc1` [Compound I-165, N2-[4-(2-N,N-Diethylaminoethyl)aminosulfonylphenyl)-5-fluoro-N4-[4-(2-pyridinyl)methyleneoxyphenyl]-2,4-pyrimidinediamine], the half-maximal inhibitory concentration (IC50) in experiment [1] was 1640 nM; in experiment [2] it was 245 nM.
For `CNS(=O)(=O)c1cc(Nc2ncc(F)c(Nc3ccc(-c4ccccn4)c(OCF)c3)n2)ccc1C` [Compound I-173, 5-Fluoro-N2-[3-N-(methyl)aminosulfonyl-4-methylphenyl]-N4-[4-(2-pyridinyl)-3-fluoromethyleneoxyphenyl]-2,4-pyrimidinediamine] the same measures were 15500 nM and 115 nM.
For `Cc1cnc(Nc2cccc(S(N)(=O)=O)c2)nc1Nc1ccc(OCc2ccccn2)cc1` [Compound I-179, N2-(3-Aminosulfonylphenyl)-5-methyl-N4-[4-(2-pyridinyl)methyleneoxyphenyl]-2,4-pyrimidinediamine] the same measures were 117 nM and 24.3 nM.
For `CNS(=O)(=O)c1cc(Nc2ncc(C)c(Nc3ccc(OCc4ccccn4)cc3)n2)ccc1C` [Compound I-180, 5-Methyl-N2-[3-(N-methylaminosulfony)-4-methylphenyl]-N4-[4-(2-pyridinyl)methyleneoxyphenyl]-2,4-pyrimidinediamine] the same measures were 456 nM and 62.4 nM.
On to `Cc1ccc(Nc2ncc(F)c(Nc3cccc(OCc4cccnc4)c3)n2)cc1S(N)(=O)=O` [Compound I-183, N2-(3-Aminosulfonyl-4-methylphenyl)-5-fluoro-N4-[3-(3-pyridinyl)methyleneoxyphenyl]-2,4-pyrimidinediamine], for which the values for the IC50 in experiment [1] and in experiment [2] were 2280 nM and 249 nM, respectively.
For `CNS(=O)(=O)c1cc(Nc2ncc(F)c(Nc3cccc(OCc4cccnc4)c3)n2)ccc1C` [Compound I-184, 5-Fluoro-N2-[3-(N-methylaminosulfony)-4-methylphenyl]-5-fluoro-N4-[3-(3-pyridinyl)methyleneoxyphenyl]-2,4-pyrimidinediamine] the same measures were 6620 nM and 486 nM.
The like results for `CCN(CC)CCNS(=O)(=O)c1ccc(Nc2ncc(F)c(Nc3cccc(OCc4cccnc4)c3)n2)cc1` [Compound I-186, N2-[4-(2-N,N-Diethylaminoethyl)aminosulfonylphenyl)-5-fluoro-N4-[3-(3-pyridinyl)methyleneoxyphenyl]-2,4-pyrimidinediamine] were, in that order, 3530 nM and 188 nM.
For `NS(=O)(=O)c1cccc(Nc2ncc(F)c(Nc3ccc(OCc4cccnc4)cc3)n2)c1` [Compound I-188, N2-(3-Aminosulfonylphenyl)-5-fluoro-N4-[4-(3-pyridinyl)methyleneoxyphenyl]-2,4-pyrimidinediamine] the same measures were 500 nM and 42.7 nM.
Consider `Cc1ccc(Nc2ncc(F)c(Nc3ccc(OCc4cccnc4)cc3)n2)cc1S(N)(=O)=O` [Compound I-189, N2-(3-Aminosulfonyl-4-methylphenyl)-5-fluoro-N4-[4-(3-pyridinyl)methyleneoxyphenyl]-2,4-pyrimidinediamine], for which the IC50 in experiment [1] amounted to 508 nM; in experiment [2] it was 137 nM.
As for `CNS(=O)(=O)c1cc(Nc2ncc(F)c(Nc3ccc(OCc4cccnc4)cc3)n2)ccc1C` [Compound I-190, 5-Fluoro-N2-[3-(N-methylaminosulfony)-4-methylphenyl]-5-fluoro-N4-[4-(3-pyridinyl)methyleneoxyphenyl]-2,4-pyrimidinediamine], the IC50 in experiment [1] was found to be 1500 nM; in experiment [2], 145 nM.
The like results for `CCN(CC)CCNS(=O)(=O)c1ccc(Nc2ncc(F)c(Nc3ccc(OCc4cccnc4)cc3)n2)cc1` [Compound I-191, N2-[4-(2-N,N-Diethylaminoethyl)aminosulfonylphenyl)-5-fluoro-N4-[4-(3-pyridinyl)methyleneoxyphenyl]-2,4-pyrimidinediamine] were, in that order, 796 nM and 135 nM.
The like results for `NS(=O)(=O)c1cccc(Nc2ncc(F)c(Nc3ccc(SCc4cccnc4)cc3)n2)c1` [Compound I-192, N2-(3-Aminosulfonylphenyl)-5-fluoro-N4-[4-(3-pyridinyl)-methylenethiophenyl]-2,4-pyrimidinediamine] were, in that order, 978 nM and 137 nM.
For `NS(=O)(=O)c1cccc(Nc2ncc(F)c(Nc3ccc(OCc4ccccn4)cc3)n2)c1` [Compound I-196, N2-(3-Aminosulfonylphenyl)-5-fluoro-N4-4-[(2-pyridinyl)methyleneoxyphenyl]-2,4-pyrimidinediamine Hydrochloride Salt], the figures for the half-inhibitory concentration (IC50) in experiment [1] and in experiment [2] (Hydrochloride Salt) were 754 nM and 124 nM, respectively.
`Cc1cc(COc2ccc(Nc3nc(Nc4ccc(C)c(S(N)(=O)=O)c4)ncc3F)cc2)[nH]n1` [Compound I-197, N2-(3-Aminosulfonyl-4-methylphenyl)-5-fluoro-N4-[4-(3-methyl-(1H)-pyrazol-5-yl)methyleneoxyphenyl]-2,4-pyrimidinediamine]: the IC50 in experiment [1] turned out to be 1280 nM; in experiment [2] it was 135 nM.
Take `Cc1cc(COc2ccc(Nc3nc(Nc4ccc(C)c(S(N)(=O)=O)c4)ncc3F)cc2)n(C)n1` [Compound I-198, N2-(3-Aminosulfonyl-4-methylphenyl)-N4-[4-(1,3-dimethyl-(1H)-pyrazol-5-yl)methyleneoxyphenyl]-5-fluoro-2,4-pyrimidinediamine]: the IC50 was determined as 805 nM in experiment [1] and 102 nM in experiment [2].
As to `Cc1cc(COc2ccc(Nc3nc(Nc4ccc(C)c(S(N)(=O)=O)c4)ncc3F)cc2)n(Cc2ccccc2)n1` [Compound I-199, N2-(3-Aminosulfonyl-4-methylphenyl)-N4-[4-(1-benzyl-3-methyl-(1H)-pyrazol-5-yl)methyleneoxyphenyl]-5-fluoro-2,4-pyrimidinediamine], the IC50 turned out to be 2690 nM in experiment [1] and 240 nM in experiment [2].
As for `Cc1cc(COc2cccc(Nc3nc(Nc4ccc(C)c(S(N)(=O)=O)c4)ncc3F)c2)no1` [Compound I-214], the values for the IC50 in experiment [1] and in experiment [2] were 1300 nM and 144 nM, respectively.
As for `CNS(=O)(=O)c1cc(Nc2ncc(F)c(Nc3ccc(Cn4ccnc4)cc3)n2)ccc1C` [III-85, 5-Fluoro-N2-[3-(N-methylaminosulfony)-4-methylphenyl]-N4-[4-(1-imidazolylmethyl)phenyl]-2,4-pyrimidinediamine hydrochloride], the IC50 is 3620 nM in experiment [1] (hydrochloride) and 72.7 nM in experiment [2] (hydrochloride).
